According to PubChem BioAssay AID1845199 (Molecular Pharmacology Branch, DTP, NCI, 2023):

Tested on: 556581-035-R-J1 tumor spheroid viability, % test/control
Test: Anticancer human tumor 556581-035-R-J1 patient-derived ovarian carcinoma cell line growth inhibition
Settings: spheroids with HUVEC and MSC; for IC50: curve of first compound; for viability, T/C: stronger effect = lower value
Source text: Multicellular complex tumor spheroid response to DNA repair inhibitors in combination with DNA-damaging drugs
This study explores the anticancer activities of DNA-damaging drugs and inhibitors of DNA damage repair, both as single agents and in combinations. Complex tumor spheroids comprised of malignant cells, endothelial cells and mesenchymal stem cells served as an in vitro model for human solid tumors. This model system incorporates physiologically relevant features and patient-derived or established malignant cell lines with clinically relevant genetic alterations from many tumor types. Twenty-six patient-derived or established malignant cell lines were evaluated representing sarcoma, melanoma, small cell lung cancer (SCLC), non-small cell lung cancer (NSCLC), as well as bladder, ovarian and pancreatic cancers. The concentration ranges selected for each drug and investigational agent were based upon clinically achievable concentrations if the clinical Cmax of the agent was known.
Compounds. The drugs and compounds olaparib (NSC753686), talazoparib (NSC767125), berzosertib (NSC777718), elimusertib (NSC800525), nedisertib (NSC802822), VX-984 (NSC792969), AZD-1390 (NSC803789), temozolomide (NSC362856), topotecan (NSC609699), trabectedin (NSC813783), staurosporine (NSC755774), and gemcitabine (NSC613327) were obtained from the National Cancer Institute (NCI) Developmental Therapeutics Program Chemical Repository. The FDA-approved anticancer drug set is available from the Developmental Therapeutics Program at https://dtp.cancer.gov/organization/dscb/obtaining/available_plates.htm. […] The stock solutions were prepared in dimethyl sulfoxide (DMSO, Sigma-Aldrich, St. Louis, MO, cat. D2650) at 400-fold the tested concentration and stored at -70 degrees C. Prior to their use, the stock solutions were diluted in fresh medium and the final DMSO concentration in the assay was 0.25% (v/v). All drugs and investigational agents were tested over a range starting from a high concentration at or near the clinical Cmax and decreasing in half-log increments. If the clinical Cmax for an agent had not been determined, the highest concentration tested was 10 microM.
Cell Lines. The patient-derived cancer cell (PDC) lines: 156681-154-R-J1-PDC, 283228-195-R-J1-PDC, 287954-098-R-J1-PDC, 292921-168-R-J2-PDC, 349418-098-R-PDC, 425362-245-T-J1-PDC, 556581-035-R-J1-PDC, and BL0293-F563-PDC were received from the NCI Patient-Derived Models Repository (PDMR, https://pdmr.cancer.gov). The established cell lines HS-SY-2 (RRID:CVCL_8719), MPNST, and SYO-1 (RRID:CVCL_7146) were obtained from the Sloan Kettering Institute. The alveolar soft parts sarcoma cell line ASPS-1 (RRID:CVCL_S738) was established at the NCI and grown from internal seed stocks. The following established cell lines were purchased from the American Type Culture Collection (ATCC, Manassas, VA): G-401 (ATCC, cat. CRL-1441, RRID:CVCL_0270), SW982 (ATCC, cat. HTB-93, RRID:CVCL_1734), VA-ES-BJ (ATCC, cat. CRL-2138, RRID:CVCL_1785), NCI-H719 (ATCC, cat. CRL-5837, RRID:CVCL_1582), NCI-H196 (ATCC, cat. CRL-5823, RRID:CVCL_1509), NCI-H841 (ATCC, cat. CRL-5845, RRID:CVCL_1595), NCI-H1618 (ATCC, cat. CRL-5879, RRID:CVCL_1480), NCI-H1876 (ATCC, cat. CRL-5902, RRID:CVCL_1503), DMS 114 (ATCC, cat. CRL-2066; RRID:CVCL_1174), NCI-H211 (ATCC, cat. CRL-5824; RRID:CVCL_1529), and SW 1271 (ATCC, cat. CRL-2177, RRID:CVCL_1716). The small cell lung cancer cell line COR-L88 was purchased from Sigma-Aldrich (cat. 92031917-1VL, RRID:CVCL_1141). The non-small cell lung cancer cell lines NCI-H226 (RRID:CVCL_1544) and NCI-H322M (RRID:CVCL_1557) were established at the NCI and grown from internal seed stocks. Pooled donor human umbilical vein endothelial cells (HUVEC, Lonza, cat. CC-2519) and human mesenchymal stem cells (hMSC, Lonza, cat. PT-2501) were purchased from Lonza (Walkersville, MD).
Cell Culture. All cells were maintained in an incubator at 37 degrees C and 5% CO2 with 95% humidity. […]

[1] = second compound 0.003 µM, first compound 0.00949 µM
[2] = second compound 0.003 µM, first compound 0.03 µM
[3] = second compound 0.003 µM, first compound 0.0949 µM
[4] = second compound 0.003 µM, first compound 0.3 µM
[5] = second compound 0.003 µM, first compound 0.949 µM
[6] = second compound 0.003 µM, first compound 3 µM
[7] = second compound 0.00949 µM, first compound 0.00949 µM
[8] = second compound 0.00949 µM, first compound 0.03 µM
[9] = second compound 0.00949 µM, first compound 0.0949 µM
[10] = second compound 0.00949 µM, first compound 0.3 µM
[11] = second compound 0.00949 µM, first compound 0.949 µM
[12] = second compound 0.00949 µM, first compound 3 µM
[13] = second compound 0.03 µM, first compound 0.00949 µM
[14] = second compound 0.03 µM, first compound 0.03 µM
[15] = second compound 0.03 µM, first compound 0.0949 µM
[16] = second compound 0.03 µM, first compound 0.3 µM
[17] = second compound 0.03 µM, first compound 0.949 µM
[18] = second compound 0.03 µM, first compound 3 µM
[19] = second compound 0.0949 µM, first compound 0.00949 µM
[20] = second compound 0.0949 µM, first compound 0.03 µM
[21] = second compound 0.0949 µM, first compound 0.0949 µM
[22] = second compound 0.0949 µM, first compound 0.3 µM
[23] = second compound 0.0949 µM, first compound 0.949 µM
[24] = second compound 0.0949 µM, first compound 3 µM
[25] = second compound 0.3 µM, first compound 0.00949 µM
[26] = second compound 0.3 µM, first compound 0.03 µM
[27] = second compound 0.3 µM, first compound 0.0949 µM
[28] = second compound 0.3 µM, first compound 0.3 µM
[29] = second compound 0.3 µM, first compound 0.949 µM
[30] = second compound 0.3 µM, first compound 3 µM
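Note: spheroids exposed to compounds for 7 days before viability read.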

Row | Structure (SMILES) | IC50 (second compound 0.003 µM) | IC50 (second compound 0.00949 µM) | IC50 (second compound 0.03 µM) | IC50 (second compound 0.0949 µM) | IC50 (second compound 0.3 µM) | viability, T/C [3] | viability, T/C [4] | viability, T/C [5] | viability, T/C [6] | viability, T/C [9] | viability, T/C [10] | viability, T/C [11] | viability, T/C [12] | viability, T/C [15] | viability, T/C [16] | viability, T/C [17] | viability, T/C [18] | viability, T/C [21] | viability, T/C [22] | viability, T/C [23] | other results
1 | CNCc1ccc(-c2cc(-c3nc(-c4ccc(S(=O)(=O)C(C)C)cc4)cnc3N)on2)cc1 + CC[C@@]1(O)C(=O)OCc2c1cc1n(c2=O)Cc2cc3c(CN(C)C)c(O)ccc3nc2-1 | 1.38 µM | 1.17 µM | 0.854 µM | 0.27 µM | < 0.00949 µM | 100% | 104% | 67.6% | 13.7% | 87.1% | 93.6% | 59% | 9.61% | 92.4% | 75% | 47.8% | 9.43% | 59% | 47.6% | 31.3% | viability, T/C [1]: 101%; viability, T/C [2]: 94.6%; viability, T/C [7]: 88.7%; viability, T/C [8]: 90.5%; viability, T/C [13]: 83.7%; viability, T/C [14]: 84.7%; viability, T/C [19]: 64.4%; viability, T/C [20]: 67%; viability, T/C [24]: 1.58%; viability, T/C [25]: 16.8%; viability, T/C [26]: 15.9%; viability, T/C [27]: 14.3%; viability, T/C [28]: 11.8%; viability, T/C [29]: 8.45%; viability, T/C [30]: 0.85%
2 | Cn1ncnc1[C@H]1c2n[nH]c(=O)c3cc(F)cc(c23)N[C@@H]1c1ccc(F)cc1 + CC[C@@]1(O)C(=O)OCc2c1cc1n(c2=O)Cc2cc3c(CN(C)C)c(O)ccc3nc2-1 | > 3 µM | > 3 µM | 1.3 µM | 0.0675 µM | < 0.00949 µM | 93.2% | 94.3% | 71.1% | 57.1% | 82.2% | 71.4% | 68.5% | 49.4% | 63.2% | 64.9% | 52.9% | 39.8% | 45% | 44.2% | 36.2% | viability, T/C [1]: 105%; viability, T/C [2]: 97.7%; viability, T/C [7]: 88.2%; viability, T/C [8]: 81.7%; viability, T/C [13]: 70%; viability, T/C [14]: 67.2%; viability, T/C [19]: 57.9%; viability, T/C [20]: 51.3%; viability, T/C [24]: 19.2%; viability, T/C [25]: 13.2%; viability, T/C [26]: 13.1%; viability, T/C [27]: 12.7%; viability, T/C [28]: 11%; viability, T/C [29]: 9.44%; viability, T/C [30]: 6.18%
3 | O=C(c1cc(Cc2n[nH]c(=O)c3ccccc23)ccc1F)N1CCN(C(=O)C2CC2)CC1 + CC[C@@]1(O)C(=O)OCc2c1cc1n(c2=O)Cc2cc3c(CN(C)C)c(O)ccc3nc2-1 | > 30 µM | > 30 µM | > 30 µM | 6.48 µM | < 0.0949 µM | 103% | 104% | 103% | 95.4% | 93% | 95.8% | 92.7% | 86.9% | 74.8% | 77.9% | 75.7% | 72.9% | 57.2% | 58.2% | 58.3% | viability, T/C (second compound 0.003 µM, first compound 9.49 µM): 83.3%; viability, T/C (second compound 0.003 µM, first compound 30 µM): 68.5%; viability, T/C (second compound 0.00949 µM, first compound 9.49 µM): 77.7%; viability, T/C (second compound 0.00949 µM, first compound 30 µM): 68%; viability, T/C (second compound 0.03 µM, first compound 9.49 µM): 63.7%; viability, T/C (second compound 0.03 µM, first compound 30 µM): 55.1%; viability, T/C [24]: 53.4%; viability, T/C (second compound 0.0949 µM, first compound 9.49 µM): 47.2%; viability, T/C (second compound 0.0949 µM, first compound 30 µM): 38.6%; viability, T/C [27]: 16.4%; viability, T/C [28]: 17.7%; viability, T/C [29]: 15%; viability, T/C [30]: 14.6%; viability, T/C (second compound 0.3 µM, first compound 9.49 µM): 12.4%; viability, T/C (second compound 0.3 µM, first compound 30 µM): 12.9%
